Results from publication PMC4429288 (The Journal of antibiotics, 2014).
Structures can show the parent of a compound that is named as a salt.

What was measured:
[1] = tested on: S. aureus (MRSA, VISA and VRSA strains); assay: MIC, broth microdilution; assay type: cell-based, Staphylococcus aureus
[2] = tested on: S. epidermidis ATCC 35984; assay: MIC, broth microdilution; assay type: cell-based; conditions: Staphylococcus epidermidis, ATCC35984
[3] = tested on: S. aureus (MRSA, VISA and VRSA strains); assay: MBC, plating from MIC wells; assay type: cell-based, Staphylococcus aureus
[4] = tested on: methicillin-resistant Staphylococcus aureus (MRSA); assay: Single-step resistance selection; assay type: cell-based; conditions: 4 × MIC; for Single-step frequency of resistance: resistant colonies per inoculum
[5] = tested on: MRSA NRS123 (USA400); assay: Time-kill analysis
[6] = Staphylococcus aureus, ATCC43300|MRSA|VISA|VRSA
[7] = Staphylococcus aureus, MRSA|NRS107|VISA|VRSA
[8] = Staphylococcus aureus, MRSA|NRS119|VISA|VRSA
[9] = Staphylococcus aureus, MRSA|NRS123|USA400|VISA|VRSA
[10] = Staphylococcus aureus, MRSA|NRS194|VISA|VRSA
[11] = Staphylococcus aureus, MRSA|NRS384|USA300|VISA|VRSA
[12] = Staphylococcus aureus, MRSA|NRS385|USA500|VISA|VRSA

## CN[C@H](CC(C)C)C(=O)N[C@H]1C(=O)N[C@@H](CC(N)=O)C(=O)N[C@H]2C(=O)N[C@H]3C(=O)N[C@H](C(=O)N[C@H](C(=O)O)c4cc(O)cc(O)c4-c4cc3ccc4O)[C@H](O)c3ccc(c(Cl)c3)Oc3cc2cc(c3O[C@@H]2O[C@H](CO)[C@@H](O)[C@H](O)[C@H]2O[C@H]2C[C@](C)(N)[C@H](O)[C@H](C)O2)Oc2ccc(cc2Cl)[C@H]1O [Vancomycin, vancomycin hydrochloride]
[1]; [6]
  MIC: 0.74 µg/mL
[1]; [7]
  MIC: 0.74 µg/mL
[1]; [8]
  MIC: 0.74 µg/mL
[1]; [9]
  MIC: 0.37 µg/mL
[1]; [10]
  MIC: 0.74 µg/mL
[1]; [11]
  MIC: 0.74 µg/mL
[1]; [12]
  MIC: 0.74 µg/mL
[2]
  MIC: 0.74 µg/mL
[3]; [6]
  MBC: 0.74 µg/mL
[3]; Staphylococcus aureus, MRSA|NRS1|VISA|VRSA
  MBC: 2.97 µg/mL
[3]; Staphylococcus aureus, MRSA|NRS19|VISA|VRSA
  MBC: 2.97 µg/mL
[3]; Staphylococcus aureus, MRSA|NRS37|VISA|VRSA
  MBC: 2.97 µg/mL
[3]; [7]
  MBC: 1.49 µg/mL
[3]; [8]
  MBC: 1.49 µg/mL
[3]; [9]
  MBC: 0.37 µg/mL
[3]; [10]
  MBC: 0.74 µg/mL
[3]; [11]
  MBC: 0.74 µg/mL
[3]; [12]
  MBC: 0.74 µg/mL
[4]; MRSA NRS119
  Single-step frequency of resistance: >8.47×10^−10
[4]; MRSA NRS123 (USA400)
  Single-step frequency of resistance: >2.33×10^−10
[4]; MRSA NRS384 (USA300)
  Single-step frequency of resistance: 3.03×10^−10
[4]; MRSA NRS385 (USA500)
  Single-step frequency of resistance: >3.31×10^−10
[5]; 2 × MIC
  Time to 3-log10 reduction in CFUml^−1: ≤ 24 h
  Time to complete elimination of MRSA: not able to eliminate all bacteria completely
[5]; 4 × MIC
  Time to complete elimination of MRSA: 24 h
[5]; 8 × MIC
  Time to complete elimination of MRSA: 24 h

## teicoplanin
[1]; MRSA ATCC 43300
  MIC: 0.94 µg/mL
[1]; MRSA NRS107
  MIC: 0.94 µg/mL
[1]; MRSA NRS119
  MIC: 0.94 µg/mL
[1]; MRSA NRS123 (USA400)
  MIC: 0.94 µg/mL
[1]; MRSA NRS194
  MIC: 0.94 µg/mL
[1]; MRSA NRS384 (USA300)
  MIC: 0.94 µg/mL
[1]; MRSA NRS385 (USA500)
  MIC: 0.94 µg/mL
[1]; VISA NRS1
  MIC: 3.76 µg/mL
[1]; VISA NRS19
  MIC: 0.94 µg/mL
[1]; VISA NRS37
  MIC: 7.52 µg/mL
[1]; VISA strains
  MIC range: 0.94 to 7.52 µg/mL
[1]; VRSA VRS1
  MIC: 120.30 µg/mL
[1]; VRSA VRS4
  MIC: 60.15 µg/mL
[1]; VRSA VRS5
  MIC: 60.15 µg/mL
[1]; all three VRSA strains
  MIC range: 60.51 to 120.30 µg/mL
[3]; MRSA ATCC 43300
  MBC: 3.76 µg/mL
[3]; MRSA NRS107
  MBC: 0.94 µg/mL
[3]; MRSA NRS119
  MBC: 0.94 µg/mL
[3]; MRSA NRS123 (USA400)
  MBC: 15.04 µg/mL
[3]; MRSA NRS194
  MBC: 15.04 µg/mL
[3]; MRSA NRS384 (USA300)
  MBC: 15.04 µg/mL
[3]; MRSA NRS385 (USA500)
  MBC: 3.76 µg/mL
[3]; VISA NRS1
  MBC: 7.52 µg/mL
[3]; VISA NRS19
  MBC: 0.94 µg/mL
[3]; VISA NRS37
  MBC: 7.52 µg/mL
[3]; VRSA VRS1
  MBC: 240.60 µg/mL
[3]; VRSA VRS4
  MBC: 60.15 µg/mL
[3]; VRSA VRS5
  MBC: 60.15 µg/mL
[3]; three strains of MRSA (NRS194, USA300, and USA400)
  MBC relative to MIC: 16 fold
[3]; two additional MRSA strains
  MBC relative to MIC: four
[4]; MRSA NRS107
  Single-step frequency of resistance: 1.91×10^−8
[4]; MRSA NRS119
  Single-step frequency of resistance: 2.73×10^−7
[4]; MRSA NRS123 (USA400)
  Single-step frequency of resistance: 2.21×10^−9
[4]; MRSA NRS384 (USA300)
  Single-step frequency of resistance: 3.03×10^−9
[4]; MRSA NRS385 (USA500)
  Single-step frequency of resistance: 1.79×10^−8
[4]; five MRSA strains
  Mutation frequency range: 2.73×10^−7 to 3.03×10^−9
[5]; 2 × MIC
  Time to complete elimination of MRSA: 24 h
[5]; 4 × MIC
  Time to complete elimination of MRSA: 24 h
[5]; 8 × MIC
  Time to complete elimination of MRSA: 24 h
